How the values were obtained:
[1] = test system: Hepa-SC cells; settings: 10 μM; cited from earlier work
[2] = test system: HEPARG® cells; assay: Comparative study of epigenetic modulators for HEPARG reprogramming to Hepa-SC (toxicity in culture); format: cell-based, human; settings: even at low concentration, in our culture conditions
Excerpt: • Step 1: Culturing the parental cells in a culture medium that has been modified in order to eliminate all factors supporting differentiation processes during a 2-passage culture period; • Step 2: Inducing mechanical stress such as shape constraint, onto the cells in order to generate a reprogramming signal toward stemness that should be associated with occurrence of a mechano-transduction signaling in all the cells in a synchronized manner, resulting in expression of a “stem cell signature” at the genome level; • Step 3: Inducing the stability of this stem cell fate by epigenetic mechanism, for instance by exposing the cells to methylation/acetylation modulators such as HDAC molecules. Epigenetic modifications refer to mitotically heritable changes in gene expression that are not coded in the DNA sequence itself (Levenson J M, Sweatt J D., 2005). The chosen epigenetic molecule should neither alter cell proliferation activity nor provoke toxicity effects and/or apoptotic induction. 5-azacytidine inhibits DNA methylation. It has been preferentially chosen for HEPARG® reprogramming to Hepa-SC stem-like cells after comparative study with Bix 01294, a small molecule known to inhibit the histone H3 methylation. […]

[3] = test system: Hepa-RP; assay: Cholestatic drug screening: alterations of bile saccular canaliculi in Hepa-RP; format: cell-based, human; settings: Hepa-RP at passage 29 (10 passages with a corticoid-free medium)
[4] = test system: CYP450 enzymes

Nc1ncn([C@H]2C[C@H](O)[C@@H](CO)O2)c(=O)n1 [5-aza-2′-deoxycytidine]
inhibition of cell proliferation [1]: does not inhibit cell proliferation | visible cell toxicity [1]: does not induce visible cell toxicity

COc1cc2nc(N3CCCN(C)CC3)nc(NC3CCN(Cc4ccccc4)CC3)c2cc1OC [Bix 01294]
toxicity compared with 5-azacytidine [2]: much more toxic

CN(C)CCCN1c2ccccc2Sc2ccc(Cl)cc21 [Chlorpromazine]
cholestatic effect on the bile saccular canaliculi (alteration) [3]: constriction

C[S+](C)[O-] [DMSO]
induction of three distinct CYP450 enzymes activity [4]: induced

O=S(=O)(c1cccc2cnccc12)N1CCCNCC1 [Fasudil]
cholestatic effect on the bile saccular canaliculi (alteration) [3]: dilatation

Source: patent US9765300B2, “Hepatic cell lines and stem-like cells, methods of making and using the same” (priority 2014, dated 2017)
